Test results taken from US11230526B1, “Cylcoalkenyl derivatives useful as agonists of the GPR120 and/or GPR40 receptors” (Janssen Pharmaceutica NV, priority 2018, dated 2022).

Experiments:
Human GPR120 short form = target: T1, Human GPR120 short form (Homo sapiens, UniProt Q5NUL3); assay: Human GPR120 calcium flux assay, Procedure Calcium B (4200 cells/well); format: cell-based
T1 construct: expressed in transfected cells
T1 sequence (Q5NUL3 1-361): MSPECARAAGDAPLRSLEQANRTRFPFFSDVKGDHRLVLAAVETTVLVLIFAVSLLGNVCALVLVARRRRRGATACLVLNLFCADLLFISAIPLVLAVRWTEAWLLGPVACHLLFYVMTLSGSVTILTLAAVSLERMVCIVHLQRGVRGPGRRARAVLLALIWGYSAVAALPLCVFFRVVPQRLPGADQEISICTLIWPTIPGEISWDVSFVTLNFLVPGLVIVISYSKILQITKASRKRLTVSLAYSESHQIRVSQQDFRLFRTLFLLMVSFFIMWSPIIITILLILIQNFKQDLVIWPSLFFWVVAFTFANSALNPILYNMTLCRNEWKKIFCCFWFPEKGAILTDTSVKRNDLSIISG
Outline: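 HEK293 cells stably expressing human GPR120 (NM_001195755.1), 4200 cells/well, starved 1 h and loaded with Fluo-4 NW plus probenecid. Ligand-evoked calcium flux read on FLIPR for 300 s after a 10 s baseline. RFU = Fmax−Fmin; EC50 from four-parameter concentration-response fit.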

[1] = target: T2, long form of human GPR120 (Homo sapiens, UniProt Q5NUL3); assay: Human GPR120 DiscoveRx PathHunter Beta-Arrestin assay, Procedure β-arrestin A; format: cell-based
T2 construct: host or cells: PathHunter CHO-K1 GPR120 β-Arrestin Cell Line
Excerpt: Human GPR120 DiscoveRx PathHunter® Beta-Arrestin Assay Assay Principle:
The binding of an agonist (medium/long chain fatty acids or small molecule agonists) to the G-protein-coupled receptor GPR120 activates phospholipase C, leading to release of intracellular Ca^+2 through the generation of inositol 1,4,5-trisphosphate (InsP3 or IP3). GPR120 activation can also trigger intracellular signaling via recruitment of Beta-Arrestin. In the present method, agonist-induced activation of the human GPR120 receptor is monitored through the use of PathHunter® CHO-K1 GPR120 Beta-Arrestin Cell Line engineered by DiscoveRx, as detailed below. The cell lines are designed to co-express both the ProLink/Enzyme Donor (PK)-tagged GPCR and the Enzyme […] (EA)-tagged Beta-Arrestin fusion proteins. Upon GPR120 receptor stimulation/activation, the EA-tagged Beta-Arrestin portion is translocated to the tagged receptor, where the two enzyme fragments are brought within close proximity. Under these conditions, these fragments can interact and form an active Beta-gal enzyme complex through Enzyme Fragment Complementation (EFC). This active Beta-gal complex can enzymatically hydrolyse the substrate to produce a detectable light signal; therefore, activation as a function of agonist concentration can be expressed as an EC50 value to determine relative compound activities. This in vitro assay therefore serves to assess compound agonist activity of the GPR120.
In Procedure β-arrestin A, the cell used were PathHunter® CHO-K1 GPR120 β-Arrestin Cell Line, expressing the long form of human GPR120 (Genbank accession number NM_181745), with 3000 cells per well.
The selected CHO-K1 GPR120 β-Arrestin cells were cultured in Ham's F12 media supplemented with 10% fetal bovine serum (FBS), 1% Glutamine, 1×p/s, 800 μg/mL G418 and 300 μg/mL Hygromycin B (for selection). Cell stocks were maintained and grown in a sub-confluent state using standard cell culture procedures. The day before the experiment, the cells were harvested with non-enzymatic cell dissociation buffer and re-suspended in complete growth media at the desired concentration. A Corning 384-plate was then seeded with the proper number of cells in a volume of 25 μL, per well. The seeded plates were incubated overnight at 37° C.
On the day of the experiment, the Assay Buffer containing (a) HBSS with Ca^++ and Mg^++, (b) 20 mM HEPES, and (c) 0.1% BSA stabilizer (pH 7.4) was prepared. The growth medium was gently removed from the cell plates and 20 μL of Assay Buffer added to each well. The plate was then incubated at 37° C. for 60 min. Test compounds were serially diluted in Assay Buffer to desired concentrations (more particularly to one or more of the following μM concentrations: 25, 12.5, 6.25, 3.12, 1.56, 0.78, 0.39, 0.19, 0.10, 0.05, 0.02, 0.01). Five μL of compound dilution was then added to each well and the plate incubated at 37° C. for 90 min. The detection reagents were prepared according to the manufacture's instruction. Twelve μL of the detection reagents were added to each well and the plate incubated at room temperature for 60 min.
The plates were read on an EnVision instrument, using Protocol name: Luminescence, Plate type: 384 Costar, Measurement height: 3 mm, Measurement time: 1 s, Aperture: 384 Plate aperture. The % Activity relative to the positive control was calculated using the following equation:
The % Activity values were plotted versus the concentration of test compound and fitted to a sigmoidal dose-response curve with a Hill slope=1 (fixed value) using nonlinear regression with GraphPad Prism 5.0 to calculate the EC50 values. The Fitting Equation was: Y=Bottom+(Top-Bottom)/(1+10^((Log EC50−X)*HillSlope)), where X is the log of the concentration and Y is the response.

T2 sequence (Q5NUL3 1-377 isoform Q5NUL3-1): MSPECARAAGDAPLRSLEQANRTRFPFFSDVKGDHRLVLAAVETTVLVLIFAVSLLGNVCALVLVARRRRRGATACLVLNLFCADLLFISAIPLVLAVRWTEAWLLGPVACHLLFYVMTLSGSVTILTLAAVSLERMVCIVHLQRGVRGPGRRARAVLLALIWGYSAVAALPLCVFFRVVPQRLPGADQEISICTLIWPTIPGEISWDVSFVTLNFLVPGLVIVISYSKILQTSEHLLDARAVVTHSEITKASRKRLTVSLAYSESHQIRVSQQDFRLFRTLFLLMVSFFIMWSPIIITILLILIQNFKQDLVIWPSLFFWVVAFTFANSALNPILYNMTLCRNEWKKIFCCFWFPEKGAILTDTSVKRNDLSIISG
T2 sequence (P32121 whole entry partner): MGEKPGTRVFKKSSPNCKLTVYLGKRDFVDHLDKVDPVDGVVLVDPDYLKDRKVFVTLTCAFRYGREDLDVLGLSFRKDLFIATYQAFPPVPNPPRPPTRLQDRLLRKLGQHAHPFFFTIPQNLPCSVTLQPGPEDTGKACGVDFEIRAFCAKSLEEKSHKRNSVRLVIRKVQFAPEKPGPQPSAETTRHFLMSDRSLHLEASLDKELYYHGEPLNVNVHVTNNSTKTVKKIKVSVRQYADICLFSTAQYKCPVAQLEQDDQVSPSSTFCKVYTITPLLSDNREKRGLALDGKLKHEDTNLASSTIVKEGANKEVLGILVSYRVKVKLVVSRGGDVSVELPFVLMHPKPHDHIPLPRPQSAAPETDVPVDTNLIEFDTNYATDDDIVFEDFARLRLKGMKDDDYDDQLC

Row | Compound | EC50 (Human GPR120 short form) [µM] | EC50 [1] [µM]
1 | Cc1c(CCC(=O)O)ccc(OCC2=C(c3ccc(Cl)cc3)CC(C#N)C2)c1C (stereo not shown) [Compound 196, 3-[4-[[2-(4-chlorophenyl)-4-cyano-cyclopenten-1-yl]methoxy]-2,3-dimethyl-phenyl]Propanoic Acid] | 0.743 | 0.996
2 | Cc1cc(CCC(=O)O)ccc1OCC1=C(c2cncs2)CC(F)(F)C1 [Compound 190, 3-[4-[(4,4-difluoro-2-thiazol-5-yl-cyclopenten-1-yl)methoxy]-3-methyl-phenyl]Propanoic Acid] | 0.442 | 1.05
3 | Cc1ccc(C2=C(COc3ccc(CCC(=O)O)cc3Br)CCC2)cc1 [Compound 169, 3-[3-bromo-4-[[2-(p-tolyl)cyclopenten-1-yl]methoxy]phenyl]Propanoic Acid] | 0.049 | 0.035
4 | Cc1c(CCC(=O)O)ccc(OCC2=C(c3ccccc3)CC(F)(F)C2)c1C [Compound 194, 3-[4-[(4,4-difluoro-2-phenyl-cyclopenten-1-yl)methoxy]-2,3-dimethyl-phenyl]Propanoic Acid] | 0.036 | 0.161
5 | COC1CCC(c2ccc(Cl)cc2)=C(COc2ccc(CCC(=O)O)c(C)c2C)C1 (stereo not shown) [Compound 540, 3-[4-[[2-(4-chlorophenyl)-5-methoxy-cyclohexen-1-yl]methoxy]-2,3-dimethyl-phenyl]Propanoic Acid] | 0.151 | 0.222
6 | Cc1cc(CCC(=O)O)ccc1OCC1=C(c2cccs2)CC(F)(F)C1 [Compound 202, 3-[4-[[4,4-difluoro-2-(2-thienyl)cyclopenten-1-yl]methoxy]-3-methyl-phenyl]Propanoic Acid] | 0.114 | 0.303
7 | Cc1c(CCC(=O)O)ccc(OCC2=C(c3ccc(F)c(F)c3)CC(F)(F)C2)c1C [Compound 177, 3-[4-[[2-(3,4-difluorophenyl)-4,4-difluoro-cyclopenten-1-yl]methoxy]-2,3-dimethyl-phenyl]Propanoic Acid] | 0.053 | 0.073
8 | Cc1c(CCC(=O)O)ccc(OCC2=C(c3ccc(Cl)c(F)c3)CCC(F)(F)C2)c1C [Compound 526, 3-[4-[[2-(4-chloro-3-fluoro-phenyl)-5,5-difluoro-cyclohexen-1-yl]methoxy]-2,3-dimethyl-phenyl]Propanoic Acid] | 0.873 | 3.84
9 | Cc1cc(CCC(=O)O)ccc1OCC1=C(c2ccccc2)CCC(F)(F)C1 [Compound 538, 3-[4-[(5,5-difluoro-2-phenyl-cyclohexen-1-yl)methoxy]-3-methyl-phenyl]Propanoic Acid] | 0.089 | 0.159
10 | COC1CC(COc2ccc(CCC(=O)O)c(C)c2C)=C(c2ccc(Cl)cc2)C1 (stereo not shown) [Compound 189, 3-[4-[[2-(4-chlorophenyl)-4-methoxy-cyclopenten-1-yl]methoxy]-2,3-dimethyl-phenyl]Propanoic Acid] | 0.063 | 0.245
11 | Cc1c(CCC(=O)O)ccc(OCC2=C(c3ccc(F)c(F)c3)CCC(F)(F)C2)c1C [Compound 531, 3-[4-[[2-(3,4-difluorophenyl)-5,5-difluoro-cyclohexen-1-yl]methoxy]-2,3-dimethyl-phenyl]Propanoic Acid] | 0.117 | 0.287
12 | Cc1c(CCC(=O)O)ccc(OCC2=C(c3cnn(C)c3)CCC(F)(F)C2)c1C [Compound 545, 3-[4-[[5,5-difluoro-2-(1-methylpyrazol-4-yl)cyclohexen-1-yl]methoxy]-2,3-dimethyl-phenyl]Propanoic Acid] | 0.977 | 1.66
13 | Cc1cc(CCC(=O)O)ccc1OCC1=C(c2ccc(Cl)c(F)c2)CCC(F)(F)C1 [Compound 527, 3-[4-[[2-(4-chloro-3-fluoro-phenyl)-5,5-difluoro-cyclohexen-1-yl]methoxy]-3-methyl-phenyl]Propanoic Acid] | 0.885 | 0.498
14 | Cc1c(CCC(=O)O)ccc(OCC2=C(c3cccc(F)c3)CC(F)(F)C2)c1C [Compound 192, 3-[4-[[4,4-difluoro-2-(3-fluorophenyl)cyclopenten-1-yl]methoxy]-2,3-dimethyl-phenyl]Propanoic Acid] | 0.062 | 0.32
15 | Cc1c(CCC(=O)O)ccc(OCC2=C(c3ccc(Cl)cc3)CC(Cl)C2)c1C (stereo not shown) [Compound 195, 3-[4-[[4-chloro-2-(4-chlorophenyl)cyclopenten-1-yl]methoxy]-2,3-dimethyl-phenyl]Propanoic Acid] | 0.228 | 0.466

Further lines, results first:

Row | EC50 (Human GPR120 short form) [µM] | EC50 [1] [µM] | Compound
16 | 0.164 | 0.358 | Cc1cc(CCC(=O)O)ccc1OCC1=C(c2ccco2)CCC(F)(F)C1 [Compound 555, 3-[4-[[5,5-difluoro-2-(2-furyl)cyclohexen-1-yl]methoxy]-3-methyl-phenyl]Propanoic Acid]
17 | 0.388 | 1.8 | Cc1c(CCC(=O)O)ccc(OCC2=C(c3cncs3)CCC(F)(F)C2)c1C [Compound 547, 3-[4-[(5,5-difluoro-2-thiazol-5-yl-cyclohexen-1-yl)methoxy]-2,3-dimethyl-phenyl]Propanoic Acid]
18 | 0.149 | 0.302 | Cc1c(CCC(=O)O)ccc(OCC2=C(c3cccs3)CCC(F)(F)C2)c1C [Compound 557, 3-[4-[[5,5-difluoro-2-(2-thienyl)cyclohexen-1-yl]methoxy]-2,3-dimethyl-phenyl]Propanoic Acid]
19 | 0.727 | 1.02 | Cc1ncc(C2=C(COc3c(F)cc(CCC(=O)O)cc3F)CC(F)(F)CC2)s1 [Compound 554, 3-[4-[[5,5-difluoro-2-(2-methylthiazol-5-yl)cyclohexen-1-yl]methoxy]-3,5-difluoro-phenyl]Propanoic Acid]
20 | 0.071 | 0.12 | Cc1ccc(C2=C(COc3ccc(CCC(=O)O)cc3C)CC(F)(F)CC2)s1 [Compound 561, 3-[4-[[5,5-difluoro-2-(5-methyl-2-thienyl)cyclohexen-1-yl]methoxy]-3-methyl-phenyl]Propanoic Acid]
21 | 0.09 | 0.176 | Cc1ccc(C2=C(COc3ccc(CCC(=O)O)c(C)c3C)CC(F)(F)CC2)s1 [Compound 564, 3-[4-[[5,5-difluoro-2-(5-methyl-2-thienyl)cyclohexen-1-yl]methoxy]-2,3-dimethyl-phenyl]Propanoic Acid]
22 | 0.155 | 0.476 | Cc1c(CCC(=O)O)ccc(OCC2=C(c3ccco3)CCC(F)(F)C2)c1C [Compound 552, 3-[4-[[5,5-difluoro-2-(2-furyl)cyclohexen-1-yl]methoxy]-2,3-dimethyl-phenyl]Propanoic Acid]
23 | 0.238 | 0.409 | O=C(O)CCc1cc(F)c(OCC2=C(c3cccs3)CCC(F)(F)C2)c(F)c1 [Compound 559, 3-[4-[[5,5-difluoro-2-(2-thienyl)cyclohexen-1-yl]methoxy]-3,5-difluoro-phenyl]Propanoic Acid]
